Reference: patent US20110111115A1, “REBAUDIOSIDE A POLYMORPHS AND METHODS TO PREPARE THEM” (priority 2009, published 2011)

Assay: Solubility in water of the rebaudioside A polymorph
Format: physicochemical
Details: 25° C.

## C=C1C[C@@]23CC[C@H]4[C@@](C)(CCC[C@@]4(C)C(=O)O[C@@H]4O[C@H](CO)[C@@H](O)[C@H](O)[C@H]4O)[C@@H]2CC[C@]1(O[C@@H]1O[C@H](CO)[C@@H](O)[C@H](O[C@@H]2O[C@H](CO)[C@@H](O)[C@H](O)[C@H]2O)[C@H]1O[C@@H]1O[C@H](CO)[C@@H](O)[C@H](O)[C@H]1O)C3 [rebaudioside A polymorph, rebaudioside A]
  solubility in water: about 1.5 mg/ml
